Activity calls are given as the source filed them.
How the values were obtained:
[1] = target: T1, Nuclear receptor subfamily 0 group B member 1 (Homo sapiens, UniProt P51843); assay: Luminescence-based cell-based high throughput dose response assay for inhibitors of the orphan nuclear receptor subfamily 0, group B, member 1 (DAX1; NR0B1). [Related pubchem assays (depositor defined):AID504766, AID504790]; assay type: functional
T1 sequence (P51843 whole entry): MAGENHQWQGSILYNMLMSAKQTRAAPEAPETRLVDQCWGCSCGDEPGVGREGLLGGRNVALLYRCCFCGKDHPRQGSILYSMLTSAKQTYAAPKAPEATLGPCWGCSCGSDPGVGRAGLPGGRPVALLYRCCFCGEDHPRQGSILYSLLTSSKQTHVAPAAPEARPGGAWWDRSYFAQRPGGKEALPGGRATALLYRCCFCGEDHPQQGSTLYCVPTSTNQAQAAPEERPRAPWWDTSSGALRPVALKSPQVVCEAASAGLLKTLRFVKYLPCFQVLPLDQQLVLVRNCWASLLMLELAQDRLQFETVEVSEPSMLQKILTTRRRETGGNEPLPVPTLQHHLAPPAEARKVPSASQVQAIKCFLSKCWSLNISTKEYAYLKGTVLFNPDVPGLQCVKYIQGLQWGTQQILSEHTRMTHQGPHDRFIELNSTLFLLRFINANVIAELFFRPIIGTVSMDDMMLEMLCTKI

[2] = target: T1, Nuclear receptor subfamily 0 group B member 1; assay type: functional, cell-based
[3] = rescue of ΔF508 CFTR function, airway epithelium – human bronchial epithelial cells, plate reader, cherry-pick, two tests, dose response (AID 743267); assay type: functional, cell-based
[4] = viability loss in HepG2 hepatoma cells – cell-based, ATP luminescence, cherry-pick, activator set 2, cytotoxicity control, dose response (AID 1053143); assay type: functional
[5] = viability loss in human hepatoma cells – cell-based, CellTiter-Glo luminescence, cherry-pick, set 2, cytotoxicity control, dose response (AID 743395); assay type: functional
cells [6] = assay type: functional, cell-based
[7] = Luminescence-based cell-based high throughput dose response assay to identify activators of the DAF-12 from the parasite S. stercoralis (ssDAF-12).; assay type: functional
HeLa = assay: viability loss in HeLa cells – cell-based, ATP luminescence, cherry-pick samples, cytotoxicity control, dose response (AID 687004); assay type: functional; conditions: Homo sapiens
HEK293 = assay: viability loss in HEK293T cells – cell-based, ATP luminescence, cherry-pick samples, cytotoxicity control, dose response (AID 687005); assay type: functional; conditions: Homo sapiens;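 note: cells exposed to compound for 48 hours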
[8] = HEK293 Cytotoxicity Assay Measured in Cell-Based System Using Plate Reader - 7071-01_Inhibitor_Dose_CherryPick_Activity_Set2.; assay type: functional
[9] = viability loss in HepG2 hepatoma cells – cell-based, cherry-picks, set 5, cytotoxicity control, dose response (AID 1053118); assay type: functional
[10] = viability loss in HEK293 kidney cells – cell-based, cherry-picks, set 5, cytotoxicity control, dose response (AID 1053117); assay type: functional
[11] = blockers of FN fibrillogenesis by fibroblasts – AH1F cells, Alexa488-FN fluorescence, cherry-picks, dose response (AID 1035475); assay type: functional, cell-based
[12] = target: Potassium channel subfamily K member 9 (Homo sapiens, UniProt Q9NPC2); assay: KCNK9 flux blockade, concentration-response – cell-based, FluxOR thallium flux, selectivity assay for TASK1 inhibitor project, SAR follow-up (AID 652211); assay type: functional;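 note: potency is for inhibitors of the channel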
Sequence of Potassium channel subfamily K member 9 (Q9NPC2 whole entry, the tested form may be a part): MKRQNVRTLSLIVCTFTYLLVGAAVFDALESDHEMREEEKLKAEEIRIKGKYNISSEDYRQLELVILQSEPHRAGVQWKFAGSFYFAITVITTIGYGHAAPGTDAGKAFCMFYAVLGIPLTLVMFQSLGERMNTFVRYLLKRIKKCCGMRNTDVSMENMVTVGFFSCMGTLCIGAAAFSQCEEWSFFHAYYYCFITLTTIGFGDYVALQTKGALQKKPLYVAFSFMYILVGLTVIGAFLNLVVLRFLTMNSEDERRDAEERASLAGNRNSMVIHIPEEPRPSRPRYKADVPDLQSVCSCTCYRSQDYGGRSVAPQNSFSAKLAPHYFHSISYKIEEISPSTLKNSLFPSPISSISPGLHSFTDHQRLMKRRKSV

[13] = target: Potassium channel subfamily K member 3 (Rattus norvegicus, UniProt O54912); assay: SAR analysis for the identification of selective inhibitors of the two-pore domain potassium channel TASK1(KCNK3):Automated Electrophysiology.; assay type: functional
Sequence of Potassium channel subfamily K member 3 (O54912 whole entry, the tested form may be a part): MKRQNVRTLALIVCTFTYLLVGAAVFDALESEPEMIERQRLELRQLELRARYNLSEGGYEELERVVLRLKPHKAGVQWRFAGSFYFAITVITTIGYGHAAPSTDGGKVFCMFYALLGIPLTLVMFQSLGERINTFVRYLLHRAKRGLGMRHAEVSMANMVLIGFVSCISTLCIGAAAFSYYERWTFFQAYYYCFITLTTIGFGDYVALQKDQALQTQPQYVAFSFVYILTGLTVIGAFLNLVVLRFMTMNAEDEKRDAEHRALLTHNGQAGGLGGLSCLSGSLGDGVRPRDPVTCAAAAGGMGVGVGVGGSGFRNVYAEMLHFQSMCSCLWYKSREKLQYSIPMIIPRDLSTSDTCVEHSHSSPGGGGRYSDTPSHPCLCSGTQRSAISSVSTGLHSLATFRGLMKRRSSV

[14] = reduction of Shn3 3'UTR-driven luciferase in osteoblasts – cell-based, Clone20 osteoblasts, firefly luciferase, cherry-picked, dose response (AID 624132); assay type: functional;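 note: firefly luciferase luminescence from reporter carrying the Shn3 3'UTR in osteoblasts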
[15] = loss of viability in HepG2 cells – cell-based, CellTiter-Glo, cherry-picked, cytotoxicity control for Shn3 inhibitor project, dose response (AID 624134); assay type: functional
[16] = non-specific 3'UTR reporter inhibition in Clone20-Shn3RL – cell-based, Renilla luciferase, cherry-picked, counter-screen for Shn3 inhibitor project, dose response (AID 624133); assay type: functional
Galanin receptor type 3 = target: T2, Galanin receptor type 3 (Homo sapiens, UniProt O60755); assay: Fluorescence-based cell-based primary high throughput dose response assay to identify antagonists of the Galanin Receptor 3 (GalR3).; assay type: functional
T2 sequence (O60755 whole entry): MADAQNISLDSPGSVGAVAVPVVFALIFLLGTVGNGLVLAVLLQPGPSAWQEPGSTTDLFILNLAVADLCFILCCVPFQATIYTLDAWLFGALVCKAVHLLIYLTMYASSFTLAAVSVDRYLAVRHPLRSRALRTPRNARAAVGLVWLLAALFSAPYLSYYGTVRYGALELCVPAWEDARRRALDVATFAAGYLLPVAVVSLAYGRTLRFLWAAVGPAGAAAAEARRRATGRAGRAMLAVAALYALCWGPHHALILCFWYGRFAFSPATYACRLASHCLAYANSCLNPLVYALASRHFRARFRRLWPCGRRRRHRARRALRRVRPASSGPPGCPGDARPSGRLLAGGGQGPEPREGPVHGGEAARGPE

cells [17] = assay type: functional, cell-based; conditions: HEK-CNG
[18] = target: COUP transcription factor 2 (Homo sapiens, UniProt P24468); assay: Luminescence-based cell-based high throughput dose response assay to identify inhibitors of COUP-TFII (NR2F2).; assay type: functional;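 note: HEK293 cells transiently cotransfected with COUP-TFII expression vector and reporter; luciferase reporter luminescence driven by COUP-TFII from the pX2-168 reporter plasmid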
Sequence of COUP transcription factor 2 (P24468 whole entry): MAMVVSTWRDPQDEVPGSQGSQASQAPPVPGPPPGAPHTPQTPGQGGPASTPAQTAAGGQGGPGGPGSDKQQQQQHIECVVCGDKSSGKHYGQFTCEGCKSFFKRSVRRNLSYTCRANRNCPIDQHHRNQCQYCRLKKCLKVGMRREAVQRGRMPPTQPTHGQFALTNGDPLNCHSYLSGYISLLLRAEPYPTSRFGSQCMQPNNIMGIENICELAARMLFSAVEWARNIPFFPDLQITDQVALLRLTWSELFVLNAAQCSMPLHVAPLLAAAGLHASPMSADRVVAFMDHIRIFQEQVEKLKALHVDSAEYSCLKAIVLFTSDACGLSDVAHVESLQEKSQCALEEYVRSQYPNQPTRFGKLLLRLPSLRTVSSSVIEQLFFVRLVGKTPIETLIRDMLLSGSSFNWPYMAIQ

[19] = Shn3 3'UTR reporter signal decrease – cell-based, Clone20 osteoblasts, firefly luciferase, cherry-pick, set 2, Schnurri-3 inhibitor project, dose response (AID 720490); assay type: functional;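 note: actives lower the luminescence signal as inhibitors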
[20] = HGIII-sPLA2 enzyme inhibition potency – biochemical, QFRET, IC50, dose response (AID 743457);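 note: green fluorescence rise as the enzyme cleaves BODIPY PC-A2 in liposomes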
[21] = T. cruzi growth inhibition in host cells, dose response, cell-based, plate reader, dry powder, set 2 (AID 652275); assay type: functional
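Throughout, for EC50: target is galanin receptor GalR3 read with a cAMP biosensor in HEK293 cells.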

Q: For `O=C(CCCCCCC(=O)Nc1ccccc1)NO` [VORINOSTAT], which IC50 [1] is on record?
A: > 67.6 µM (inactive)

Q: What about the IC50 [2] of the same molecule?
A: 0.747 µM (active)

Q: And the AC50 [3]?
A: 0.933 µM (active)

Q: And the AC50 [4]?
A: 1.75 µM (active)

Q: What about the AbsAC35_uM [5] of the same molecule?
A: 0.468 µM

Q: With `C(=Cc1c[nH]c2ccccc12)c1ccc2ccccc2n1` as the molecule, how does the IC50 (cells [6]) read?
A: > 67.5 µM (inactive)

Q: What about the IC50 [2] of the same molecule?
A: 10.3 µM (inactive)

Q: What about the IC50 [7] of the same molecule?
A: > 67.5 µM (inactive)

Q: For `CC(C)CC#Cc1ccc2c(c1)O[C@H](CN(C)C(=O)C1CCC1)[C@@H](C)CN([C@@H](C)CO)S2(=O)=O`, which AC50 (HeLa) is on record?
A: > 52 µM (inactive)

Q: What about the AC50 (HEK293) of the same molecule?
A: 15.8 µM (active)

Q: What about the AC50 [8] of the same molecule?
A: 15.8 µM (active)

Q: Which AC50 [9] does the source give for `O=S(=O)(c1ccccc1F)N1CC[C@@H]2[C@@H](CO)Nc3ccc(-c4cccc(F)c4)cc3[C@@H]21` here?
A: 32.6 µM (active)

Q: What about the AC50 [10] of the same molecule?
A: > 52 µM (inactive)

Q: What about the AC50 [11] of the same molecule?
A: 39.9 µM (active)

Q: For `COc1ccccc1C(=O)Nc1cccc(NC(=O)c2ccccc2OC)c1`, which IC50 [12] is on record?
A: 3.62 µM (active)

Q: What about the IC50 [13] of the same molecule?
A: 0.03 µM (active)

Q: Which results are given for `O=C(CSc1nnc(-c2cccnc2)s1)Nc1ccnc2ccccc12`?
A: AC50 [14]: 0.661 µM (active); AC50 [15]: 39.3 µM (active); AC50 [16]: 2.34 µM (active); IC50 (Galanin receptor type 3): 1.18 µM (active); EC50 (cells [17]): > 29.9 µM (inactive); IC50 [18]: 5.33 µM (active); AC50 [19]: 1.19 µM (active)

Q: For `Cc1ccc(NC(S)=NNC(=O)CSc2nnc(-c3ccc(Cl)cc3)n2C2CCCCC2)cc1`, which IC50 [20] is on record?
A: > 40.6 µM (inactive)

Q: With `CN(C)C(=O)c1cccc(-c2ccc([C@H]3[C@@H](CO)N4CCCCN(C(=O)C5CCC5)C[C@@H]34)cc2)c1` as the molecule, how does the AC50 [21] read?
A: 1.06 µM (active)
